Experimental data published in US10898481B2 (priority 2018, dated 2021).
Like-named read-outs stand apart in the source and are kept apart here.

Experiments:
hA2a/CHO = hA2a/CHO (Homo sapiens (Human), UniProt P29274); assay: cAMP inhibition assay in hA2a/CHO cells, 10 μM adenosine; format: cell-based;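 also: compounds added to cells 30 min ahead of adenosine, then a further 30 min at 37 °C with adenosine before cAMP detection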
Procedure: (§1) hA2a/CHO, hA2b/CHO, hA3/CHO and mA2a/CHO (Genscript) were plated at 5×10^3 cells/well into 384-well polystyrene plates at the day of experiment. Compounds were pre-incubated with cells for 30 min at 37° C., 5% CO2. Then 10 μM adenosine was added to the cells and incubated for 30 min at 37° C., 5% CO2. Detection reagent (CISBIO) was added and the plates were incubated for 60 min at room temperature. The signal was captured by Envision.

hA2b/CHO = hA2b/CHO (Homo sapiens (Human), UniProt P29275); assay: cAMP inhibition assay in hA2b/CHO cells, 10 μM adenosine; format: cell-based;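 also: cells exposed to compound 30 min at 37 °C, then stimulated with adenosine a further 30 min, cAMP read after 60 min at room temperature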
Sequence of hA2b/CHO (P29275 whole entry): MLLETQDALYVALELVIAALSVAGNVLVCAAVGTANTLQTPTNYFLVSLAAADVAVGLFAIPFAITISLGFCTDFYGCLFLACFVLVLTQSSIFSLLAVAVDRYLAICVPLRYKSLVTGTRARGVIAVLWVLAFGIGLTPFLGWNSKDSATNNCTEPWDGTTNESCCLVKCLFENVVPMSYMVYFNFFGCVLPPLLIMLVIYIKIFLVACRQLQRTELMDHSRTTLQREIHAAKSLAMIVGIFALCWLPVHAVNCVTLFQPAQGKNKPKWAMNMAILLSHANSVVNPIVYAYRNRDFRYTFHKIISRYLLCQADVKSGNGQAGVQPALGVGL
Procedure: as §1

[1] = target: hADORA1/CHO (hA1 expressing) cells (Homo sapiens (Human), UniProt P30542); assay: cell-based; conditions: 10 μM adenosine
Sequence of hADORA1/CHO (hA1 expressing) cells (P30542 whole entry): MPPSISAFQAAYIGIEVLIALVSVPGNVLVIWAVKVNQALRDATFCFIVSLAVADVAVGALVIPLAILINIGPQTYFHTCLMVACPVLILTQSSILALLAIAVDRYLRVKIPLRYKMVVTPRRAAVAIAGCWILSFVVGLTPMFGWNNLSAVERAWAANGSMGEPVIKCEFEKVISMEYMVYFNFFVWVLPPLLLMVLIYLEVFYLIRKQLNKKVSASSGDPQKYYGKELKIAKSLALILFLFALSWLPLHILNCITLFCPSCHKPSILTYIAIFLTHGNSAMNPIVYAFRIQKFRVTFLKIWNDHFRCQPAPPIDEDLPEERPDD
Procedure: hADORA1/CHO (hA1 expressing) cells (Genscript) were plated at 1×10^4 cells/well into 384-well polystyrene plates one day before starting the experiment. On the day of experiment, the supernatant was discard and replaced with 40 μL of dye (FLIPR calcium 5 Assay Kit) per well and the plates were incubated for 60 mins at 37° C. plus 5% CO2. Then testing compounds were added at different concentrations for FLIPR™ inhibition assay. After a 400s incubation with compound, 10 μM adenosine was added into the cells, and the signal was captured by FLIPR.

mA2a/CHO = mA2a/CHO (Mus musculus (Mouse), UniProt Q60613); assay: cAMP inhibition assay in mA2a/CHO cells, 10 μM adenosine; format: cell-based;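 also: compounds preincubated 30 min at 37 °C before the adenosine challenge, then 30 min further stimulation, readout after 60 min detection reagent incubation at room temperature in 384-well plates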
Sequence of mA2a/CHO (Q60613 whole entry): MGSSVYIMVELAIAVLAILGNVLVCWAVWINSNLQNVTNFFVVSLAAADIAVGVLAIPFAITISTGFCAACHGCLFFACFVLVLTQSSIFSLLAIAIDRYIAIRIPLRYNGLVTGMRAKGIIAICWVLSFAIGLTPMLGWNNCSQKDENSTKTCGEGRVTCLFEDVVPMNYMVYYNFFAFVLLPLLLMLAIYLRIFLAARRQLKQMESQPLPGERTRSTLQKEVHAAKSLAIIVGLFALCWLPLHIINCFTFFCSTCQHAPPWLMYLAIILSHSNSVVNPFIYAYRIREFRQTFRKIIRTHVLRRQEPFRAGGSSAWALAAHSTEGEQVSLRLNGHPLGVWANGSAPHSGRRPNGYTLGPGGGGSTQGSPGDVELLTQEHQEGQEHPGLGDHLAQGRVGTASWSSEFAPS
Procedure: as §1

[2] = read-out: cAMP & FLIPR IC50 (nM) hA2a
[3] = read-out: cAMP & FLIPR IC50 (nM) hA2b
[4] = FLIPR inhibition, read-out: cAMP & FLIPR IC50 (nM) hA1
[5] = read-out: cAMP & FLIPR IC50 (nM) mA2a

Sequence of hA2a/CHO (P29274 whole entry): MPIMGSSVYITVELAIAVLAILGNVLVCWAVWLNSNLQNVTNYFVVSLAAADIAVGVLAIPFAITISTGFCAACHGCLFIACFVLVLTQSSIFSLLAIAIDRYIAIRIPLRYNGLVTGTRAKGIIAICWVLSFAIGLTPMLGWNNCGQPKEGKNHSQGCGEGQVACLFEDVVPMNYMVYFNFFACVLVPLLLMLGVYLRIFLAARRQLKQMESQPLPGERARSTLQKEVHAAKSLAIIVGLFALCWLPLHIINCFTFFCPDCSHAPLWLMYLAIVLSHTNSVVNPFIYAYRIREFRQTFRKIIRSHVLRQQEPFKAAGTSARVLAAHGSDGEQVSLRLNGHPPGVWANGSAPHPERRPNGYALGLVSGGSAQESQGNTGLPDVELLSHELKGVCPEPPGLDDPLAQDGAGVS

Row | SMILES | IC50 (hA2a/CHO; [2]) [nM] | IC50 (hA2b/CHO; [3]) [nM] | IC50 [1, 4] [nM] | IC50 (mA2a/CHO; [5]) [nM] | IC50 (hA2a/CHO; cAMP & FLIPR IC50 (nM) hA2a) [nM] | IC50 (hA2b/CHO; cAMP & FLIPR IC50 (nM) hA2b) [nM] | IC50 ([1]; cAMP & FLIPR IC50 (nM) hA1, FLIPR inhibition) [nM] | IC50 (mA2a/CHO; cAMP & FLIPR IC50 (nM) mA2a) [nM]
1 | Cc1cnc2ccc(-c3nc(C(=O)NCc4cccc(N[C@H]5C[C@H](N(C)C)C5)n4)c(N)nc3-c3ncco3)cn12 [Cmpd. 227, Trans-3-amino-6-[3-methyl-imidazo[1,2-a]pyridin-6-yl]-5-(1,3-oxazol-2-yl)-N-[(6-[[3-(dimethylamino)cyclobutyl]amino]pyridin-2-yl)methyl]pyrazine-2-carboxamide] | 4.4 | 99 | 781 | 24 |  |  |  | 
2 | Cc1cnc2ccc(-c3nc(C(=O)NC[C@H]4CCCO4)c(N)nc3-n3nccn3)cn12 [Cmpd. 229, 3-amino-6-[3-methylimidazo[1,2-a]pyridin-6-yl]-N-[[(2R)-oxolan-2-yl]methyl]-5-(2H-1,2,3-triazol-2-yl)pyrazine-2-carboxamide] | 2.4 | 157 | 1650 | 19 |  |  |  | 
3 | Cc1ccc(-c2nc(N)c(C(=O)NCc3c(F)cccc3F)nc2-c2ccc(=O)n(C)c2)o1 [Example 2, 3-amino-N-[(2,6-difluorophenyl)methyl]-6-(1-methyl-6-oxo-1,6-dihydropyridin-3-yl)-5-(5-methylfuran-2-yl)pyrazine-2-carboxamide] | 0.9 | 92 | 26 | 21 |  |  |  | 
4 | Cc1ccc(-c2nc(N)c(CNC(=O)c3c(F)cccc3F)nc2-c2ccc(=O)n(C)c2)o1 [Example 4, N-((3-amino-6-(1-methyl-6-oxo-1,6-dihydropyridin-3-yl)-5-(5-methylfuran-2-yl)pyrazin-2-yl)methyl)-2,6-difluorobenzamide] | 15 | 1220 | 18 | 43 |  |  |  | 
5 | Cc1cc(-c2nc(C(=O)NCc3c(F)cccc3F)c(N)nc2-c2ncco2)cc(C)n1 [Example 5, 3-amino-N-(2,6-difluorobenzyl)-6-(2,6-dimethylpyridin-4-yl)-5-(oxazol-2-yl)pyrazine-2-carboxamide] | 28 | ≥ 10000 | 10000 | 219 |  |  |  | 
6 | CC1CN(c2nc(C(=O)NCc3c(F)cccc3F)c(N)nc2-c2ccc(F)cc2)CC(C)O1 (stereo not shown) [Example 6, 3-amino-N-(2,6-difluorobenzyl)-6-(2,6-dimethylmorpholino)-5-(4-fluorophenyl)pyrazine-2-carboxamide] | 87 | ≥ 10000 | 8840 | 1060 |  |  |  | 
7 | Cn1cc(-c2nc(CNC(=O)c3c(F)cccc3C(F)(F)F)c(N)nc2-c2ccc(F)cc2)ccc1=O [Example 7, N-[[3-amino-5-(4-fluorophenyl)-6-(1-methyl-6-oxo-1,6-dihydropyridin-3-yl)pyrazin-2-yl]methyl]-2-fluoro-6-(trifluoromethyl)benzamide] | 166 | 3860 | 98 | 237 |  |  |  | 
8 | Cc1cc(-c2nc(CNC(=O)c3ccccn3)c(N)nc2-c2ccc(F)cc2)cc(C)n1 [Example 8, N-[[3-amino-6-(2,6-dimethylpyridin-4-yl)-5-(4-fluorophenyl)pyrazin-2-yl]methyl]pyridine-2-carboxamide] | 116 | ≥ 10000 | 3400 | 390 |  |  |  | 
9 | CN(C)c1cccc(CNC(=O)c2nc(-c3ccc(=O)n(C)c3)c(-c3ncco3)nc2N)n1 [Example 15, 3-amino-N-[[6-(dimethylamino)pyridin-2-yl]methyl]-6-(1-methyl-6-oxo-1,6-dihydropyridin-3-yl)-5-(1,3-oxazol-2-yl)pyrazine-2-carboxamide] | 39 | ≥ 10000 | 804 | 86 |  |  |  | 
10 | COc1cccc(CNC(=O)c2nc(-c3ccc(=O)n(C)c3)c(-c3ncco3)nc2N)n1 [Example 17] | 117 | ≥ 10000 | 951 | 132 |  |  |  | 
11 | Cc1cccc(CNC(=O)c2nc(-c3ccc(=O)n(C)c3)c(-c3ncco3)nc2N)n1 [Example 18, 3-amino-6-(1-methyl-6-oxo-1,6-dihydropyridin-3-yl)-N-[(6-methylpyridin-2-yl)methyl]-5-(1,3-oxazol-2-yl)pyrazine-2-carboxamide] | 105 | ≥ 10000 | 1150 | 116 |  |  |  | 
12 | Cn1cc(-c2nc(CNC(=O)c3ncccc3OC(F)F)c(N)nc2-c2ccc(F)cc2)ccc1=O [Example 21, N-[[3-amino-5-(4-fluorophenyl)-6-(1-methyl-6-oxo-1,6-dihydropyridin-3-yl)pyrazin-2-yl]methyl]-3-(difluoromethoxy)pyridine-2-carboxamide] | 98 | 638 | 18 | 73 |  |  |  | 
13 | Cn1cc(-c2nc(C(=O)NCc3ncccc3CO)c(N)nc2-c2ncco2)ccc1=O [Example 36, 3-amino-N-((3-(hydroxymethyl)pyridin-2-yl)methyl)-6-(1-methyl-6-oxo-1,6-dihydropyridin-3-yl)-5-(oxazol-2-yl)pyrazine-2-carboxamide] | 180 | 2530 | 3010 | 419 |  |  |  | 
14 | Nc1nc(-c2ncco2)c(-c2ccc(=O)n(C3CC3)c2)nc1C(=O)NCc1c(F)cccc1F [Example 38, 3-amino-6-(1-cyclopropyl-6-oxo-1,6-dihydropyridin-3-yl)-N-[(2,6-difluorophenyl)methyl]-5-(1,3-oxazol-2-yl)pyrazine-2-carboxamide] | 2.4 | 59 | 61 | 5.3 |  |  |  | 
15 | Cn1cc(-c2nc(C(=O)NCc3c(F)cccc3N3CCOCC3)c(N)nc2-c2ncco2)ccc1=O [Example 39, 3-amino-N-[[2-fluoro-6-(morpholin-4-yl)phenyl]methyl]-6-(1-methyl-6-oxo-1,6-dihydropyridin-3-yl)-5-(1,3-oxazol-2-yl)pyrazine-2-carboxamide] | 7.8 | 2120 | 32 | 3.3 |  |  |  | 
16 | Nc1nc(-c2ncco2)c(-c2ccc(=O)n(C3COC3)c2)nc1C(=O)NCc1c(F)cccc1F [Example 42, 3-amino-N-[(2,6-difluorophenyl)methyl]-5-(1,3-oxazol-2-yl)-6-[1-(oxetan-3-yl)-6-oxo-1,6-dihydropyridin-3-yl]pyrazine-2-carboxamide] | 14 | 102 | 51 | 16 |  |  |  | 
17 | Cc1nc(CNC(=O)c2nc(-c3ccc4nccn4c3)c(-c3ncco3)nc2N)cs1 [Example 44, 3-amino-6-(imidazo[1,2-a]pyridin-6-yl)-N-((2-methylthiazol-4-yl)methyl)-5-(oxazol-2-yl)pyrazine-2-carboxamide] | 131 | 2110 | 10000 | 786 |  |  |  | 
18 | Nc1nc(-c2ncco2)c(-c2ccc3nccn3c2)nc1C(=O)NCc1cscn1 [Example 45, 3-amino-6-[imidazo[1,2-a]pyridin-6-yl]-5-(1,3-oxazol-2-yl)-N-[(1,3-thiazol-4-yl)methyl]pyrazine-2-carboxamide] | 94 | 912 | 10000 | 566 |  |  |  | 
19 | CNc1cccnc1CNC(=O)c1nc(-c2ccc(=O)n(C)c2)c(-c2ncco2)nc1N [Example 46, 3-amino-6-(1-methyl-6-oxo-1,6-dihydropyridin-3-yl)-N-((3-(methylamino)pyridin-2-yl)methyl)-5-(oxazol-2-yl)pyrazine-2-carboxamide] | 102 | 1620 | 488 | 125 |  |  |  | 
20 | CNc1ccc(F)c(CNC(=O)c2nc(-c3ccc(=O)n(C)c3)c(-c3ncco3)nc2N)n1 [Example 50, 3-amino-N-[[3-fluoro-6-(methylamino)pyridin-2-yl]methyl]-6-(1-methyl-6-oxo-1,6-dihydropyridin-3-yl)-5-(1,3-oxazol-2-yl)pyrazine-2-carboxamide] | 33 | 249 | 90 | 85 |  |  |  | 
21 | COc1cc(F)ccc1CNC(=O)c1nc(-c2cc(C)nc(C)c2)c(-c2ccc(F)cc2)nc1N [Example 52, 3-amino-6-(2,6-dimethylpyridin-4-yl)-N-(4-fluoro-2-methoxybenzyl)-5-(4-fluorophenyl)pyrazine-2-carboxamide] | 89 | ≥ 10000 | 2630 | 5960 |  |  |  | 
22 | COc1c(F)cccc1CNC(=O)c1nc(-c2cc(C)nc(C)c2)c(-c2ccc(F)cc2)nc1N [Example 54, 3-amino-6-(2,6-dimethylpyridin-4-yl)-N-(3-fluoro-2-methoxybenzyl)-5-(4-fluorophenyl)pyrazine-2-carboxamide] | 117 | ≥ 10000 | 1590 | 2080 |  |  |  | 
23 | Cc1cc(-c2nc(C(=O)NCc3ccccc3C(F)F)c(N)nc2-c2ccc(F)cc2)cc(C)n1 [Example 55, 3-amino-N-(2-(difluoromethyl)benzyl)-6-(2,6-dimethylpyridin-4-yl)-5-(4-fluorophenyl)pyrazine-2-carboxamide] | 133 | 4440 | 413 | 1590 |  |  |  | 
24 | COc1ccccc1CNC(=O)c1nc(-c2cc(C)nc(C)c2)c(-n2cccn2)nc1N [Example 56, 3-amino-6-(2,6-dimethylpyridin-4-yl)-N-(2-methoxybenzyl)-5-(1H-pyrazol-1-yl)pyrazine-2-carboxamide] | 28 | ≥ 10000 | 940 | 623 |  |  |  | 
25 | Cc1cc(-c2nc(C(=O)NCc3ncccc3OC(F)F)c(N)nc2-c2ccc(F)cc2)cc(C)n1 [Example 57, 3-amino-N-((3-(difluoromethoxy)pyridin-2-yl)methyl)-6-(2,6-dimethylpyridin-4-yl)-5-(4-fluorophenyl)pyrazine-2-carboxamide] |  |  |  |  | 41 | 1680 | 142 | 278
